Test results: patent US20240246916A1, “7-NITRO-8-HYDROXYQUINOLINE DERIVATIVES, PREPARATION METHOD THEREFORE AND MEDICAL USE THEREOF” (Jiangsu Yahong Meditech Co., Ltd., priority 2021, published 2024)
Converted amounts (≈) assume the structure as drawn.

Columns and labels:
Assay type in all cases: cell-based
[1] = test system: Acinetobacter baumannii (carbapenem-resistant clinical isolates; ATCC19606); assay: MIC by micro broth dilution (CLSI), Acinetobacter baumannii; settings: for MIC50 / MIC90: ATCC19606, Clinical strain; for MIC50 / MIC90 / MIC: Acinetobacter baumannii; for MIC50: read-out: MIC50; for MIC90: read-out: MIC90; for MIC: Standard strain ATCC19606, read-out: MIC; for inhibitory effect against Acinetobacter baumannii compared with the reference drug nitroxoline: MIC comparison
Summary of the method: (§1)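 In cation-adjusted Mueller-Hinton broth, 10^5 CFU/mL of bacteria met compound concentrations of 128 to 0.06 mg/L. Plates sat in air at 35±2° C for 20 hours.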

[2] = test system: Prostate cancer cell line LNcaP; assay: Inhibitory activity on cancer cells, CellTiter-Glo viability, LNcaP; settings: Homo sapiens, 72 hours treatment
Summary of the method: (§2)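 HUVEC seeded at 2000, UM-UC-3 and RM-1 at 3000, LNCaP at 5000 cells/well, each in its own medium, 24 h before dosing. Compounds: 8-point 2.5-fold dilutions from 100 μmol, 72 h at 37 °C, 5% CO2. CellTiter-Glo luminescence; IC50 from growth-inhibition curves.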

[3] = test system: Bladder cancer cell line UM-UC-3; assay: Inhibitory activity on cancer cells, CellTiter-Glo viability, UM-UC-3; settings: Homo sapiens, UMUC3, 72 hours treatment
Summary of the method: as §2

[4] = test system: Endothelial cell line HUVEC; assay: Inhibitory activity on cells, CellTiter-Glo viability, HUVEC; settings: Homo sapiens, 72 hours treatment
Summary of the method: as §2

[5] = test system: Escherichia coli (carbapenem-resistant clinical isolate; ATCC25922); assay: MIC by micro broth dilution (CLSI), Escherichia coli; settings: Escherichia coli; for MIC50 / MIC90: ATCC25922, Clinical strain; for MIC50: read-out: MIC50; for MIC90: read-out: MIC90; for MIC: Standard strain ATCC25922, read-out: MIC
Summary of the method: as §1

[6] = test system: Mouse prostate cancer cell line RM1; assay: Inhibitory activity on cancer cells, CellTiter-Glo viability, RM1; settings: 72 hours treatment
Summary of the method: as §2

[7] = test system: Staphylococcus aureus (methicillin-resistant and sensitive clinical isolates; ATCC29213); assay: MIC by micro broth dilution (CLSI), Staphylococcus aureus; settings: for MIC50 / MIC90: Clinical strain; for MIC50: read-out: MIC50; for MIC90: read-out: MIC90; for MIC: Standard strain ATCC29213, read-out: MIC
Summary of the method: as §1

Compound | MIC50 [1] | MIC90 [1] | MIC [1] | inhibitory effect against Acinetobacter baumannii compared with the reference drug nitroxoline [1] | IC50 [2] | IC50 [3] | IC50 [4] | MIC50 [5] | MIC90 [5] | MIC [5] | IC50 [6] | MIC50 [7] | MIC90 [7] | MIC [7]
O=[N+]([O-])c1cc(F)c2c(Cl)ccnc2c1O [Example 68, 4-Chloro-5-fluoro-7-nitroquinolin-8-ol] | 4 mg/L (≈ 16.5 µM) | 8 mg/L (≈ 33 µM) | 2 mg/L (≈ 8.24 µM) | comparable to that of the reference drug nitroxoline | 5.38 µM | 17.5 µM | 10 µM | 8 mg/L (≈ 33 µM) | 32 mg/L (≈ 132 µM) | 8 mg/L (≈ 33 µM) | 5.19 µM | 2 mg/L (≈ 8.24 µM) | 4 mg/L (≈ 16.5 µM) | 4 mg/L (≈ 16.5 µM)
O=[N+]([O-])c1cc(F)c2c(N3CCC(F)(F)CC3)ccnc2c1O [Example 69, 4-(4,4-Difluoropiperidin-1-yl)-5-fluoro-7-nitroquinolin-8-ol] | > 128 mg/L | > 128 mg/L | > 128 mg/L |  | 1.33 µM | 4.81 µM | 2.67 µM | > 128 mg/L | > 128 mg/L | > 128 mg/L | 2.23 µM | 2 mg/L (≈ 6.11 µM) | 2 mg/L (≈ 6.11 µM) | 4 mg/L (≈ 12.2 µM)
O=[N+]([O-])c1cc(F)c2c(N3CCC(C(F)(F)F)CC3)ccnc2c1O [Example 70, 5-Fluoro-7-nitro-4-(4-(trifluoromethyl)piperidin-1-yl)quinolin-8-ol] | > 128 mg/L | > 128 mg/L | > 128 mg/L |  | 0.96 µM | 5.28 µM | 2.78 µM | > 128 mg/L | > 128 mg/L | > 128 mg/L | 2.62 µM | 2 mg/L (≈ 5.57 µM) | 4 mg/L (≈ 11.1 µM) | 4 mg/L (≈ 11.1 µM)
CCOC(=O)C1CCN(c2ccnc3c(O)c([N+](=O)[O-])cc(F)c23)CC1 [Example 71, Ethyl 1-(5-fluoro-8-hydroxy-7-nitroquinolin-4-yl)piperidine-4-carboxylate] | > 128 mg/L | > 128 mg/L | > 128 mg/L |  | 1.53 µM | 6.8 µM | 2.7 µM | > 128 mg/L | > 128 mg/L | > 128 mg/L | 2.51 µM | 2 mg/L (≈ 5.5 µM) | 4 mg/L (≈ 11 µM) | 8 mg/L (≈ 22 µM)
O=[N+]([O-])c1cc(F)c2c(OCC3CC3)ccnc2c1O [Example 72, 4-(Cyclopropylmethoxy)-5-fluoro-7-nitroquinolin-8-ol] | > 128 mg/L | > 128 mg/L | 64 mg/L (≈ 230 µM) |  | 1.89 µM | 6.28 µM | 2.65 µM | > 128 mg/L | > 128 mg/L | > 128 mg/L | 3.03 µM | 2 mg/L (≈ 7.19 µM) | 4 mg/L (≈ 14.4 µM) | 2 mg/L (≈ 7.19 µM)
Cl.O=[N+]([O-])c1cc(Cl)c2c(C(F)(F)F)ccnc2c1O [Example 73, 5-chloro-7-nitro-4-(trifluoromethyl)-quinolin-8-ol hydrochloride] | 8 mg/L | 32 mg/L | 2 mg/L | comparable to that of the reference drug nitroxoline | 2.31 µM | 5.04 µM | 3.45 µM | 8 mg/L | 64 mg/L | 8 mg/L | 2.63 µM | 1 mg/L | 2 mg/L | 1 mg/L
O=[N+]([O-])c1ccc2c(Cl)c(C3CC3)cnc2c1O [Example 74, 4-chloro-3-cyclopropyl-7-nitroquinolin-8-ol] | 128 mg/L (≈ 484 µM) | 128 mg/L (≈ 484 µM) | 4 mg/L (≈ 15.1 µM) |  | 0.53 µM | 1.57 µM | 1.28 µM | 128 mg/L (≈ 484 µM) | 128 mg/L (≈ 484 µM) | > 128 mg/L | 7.64 µM | 0.25 mg/L (≈ 0.945 µM) | 0.5 mg/L (≈ 1.89 µM) | 0.5 mg/L (≈ 1.89 µM)
N#Cc1ccnc2c(O)c([N+](=O)[O-])ccc12 [Example 76, 8-hydroxy-7-nitroquinoline-4-carbonitrile] | 32 mg/L (≈ 149 µM) | 64 mg/L (≈ 297 µM) | 32 mg/L (≈ 149 µM) |  | 15.2 µM | 38.8 µM | 18 µM | 32 mg/L (≈ 149 µM) | 64 mg/L (≈ 297 µM) | 32 mg/L (≈ 149 µM) | 13.3 µM | 32 mg/L (≈ 149 µM) | 32 mg/L (≈ 149 µM) | 32 mg/L (≈ 149 µM)
